Reference: patent publication US11718628B2, “SREBP inhibitors comprising a 6-membered central ring” (Capulus Therapeutics, LLC, priority 2018, dated 2023)
Values after ≈ are worked out from the molar mass of the structure shown.

Legend:
[1] = Half-life in human liver microsomes; type: in vitro ADME; conditions: human, liver microsomes, NADPH, 37° C., read-out: G: half-life human liver microsomes
Procedure: (§1) Half-life Human Microsomes: Compounds were evaluated for stability in human liver microsomes. A 10 mM stock solution of the compound being evaluated was prepared in DMSO and diluted with water:acetonitrile (1:1) to a concentration of 1 mM. A working concentration of 100 μM was prepared by further dilution with water:acetonitrile (1:1). To make the preincubation mixture, 2.5 μL of the diluted compound was combined with 75 μL of human liver microsomes at 3.33 mg/mL, and 85 μL of 100 mM potassium phosphate buffer, and this mixture was pre-incubated for 10 min at 37° C. To make the 60 minute mixture without cofactor, 32.5 μL of the preincubation mixture was combined with 17.5 μL of 100 mM potassium phosphate buffer and incubated for 60 min at 37° C. To make the 0 min sample with cofactor (NADPH), 16.25 μL of the preincubation mixture was combined with 200 μL of acetonitrile containing internal standard and 8.75 μL of cofactor (NADPH). To make the incubation mixture, 62 μL of cofactor (2.85 mM) was combined with the remaining incubation mixture, and incubated for 60 min at 37° C. To prepare the sample mixture to be evaluated, 25 μL incubation mixture was combined with 200 μL of acetonitrile containing internal standard and vortexed for 5 min at 1200 rpm, then centrifuged for 10 min at 4000 rpm. The supernatant was diluted 2 fold with water and injected on LC-MS/MS. The sample mixture was evaluated by LC-MS/MS using 10 mM ammonium acetate with 0.1% FA as the aqueous mobile phase, and methanol as the organic mobile phase.

[2] = Half-life in mouse liver microsomes; type: in vitro ADME; conditions: mouse, liver microsomes, read-out: H: half-life of mouse liver microsomes
Procedure: as §1
Half-life Mouse Microsomes: Compounds were evaluated in mouse liver microsomes following a similar procedure as described above for human liver microsomes. A similar procedure could be used to evaluate compounds in rat liver microsomes.

Kinetic solubility = type: physicochemical; conditions: aqueous buffer, kinetic from dmso stock, pH 7.4 buffer, room temperature, 1.0% DMSO, read-out: I: kinetic solubility class
Procedure: Kinetic Solubility Procedure: A 10 mM stock solution of a compound was prepared in DMSO, then 4 μL of the stock was added to a deep well plate containing 396 μL of pH 7.4 buffer. The sample plate was vortexed at 800 rpm for 24 h on thermomixer at room temperature. The plate was sealed well during the incubation process. The DMSO content in the sample was 1.0%. The concentration of the evaluated compound in the final incubation was 100 μM. At the end of the incubation period, the sample plate was centrifuged at 4000 rpm for 10 min and analyzed in LC-UV against a calibration curve (CC). Values <10 μg/mL=Low; 10 to 60 μg/mL=Medium; >60 μg/mL=High.

| Compound | half-life at 1 µM [1] [min] | half-life at 1 µM [2] [min] | solubility kinetic at 24 h (Kinetic solubility) [µg/mL] |
| --- | --- | --- | --- |
| Cc1cc(S(=O)(=O)NC(C)C)ccc1-c1cncc(-c2ccnc(C(C)(C)C)c2)c1 | 1.69 | 177 | 10 to 60 (≈ 23.6 to 142 µM) |
| CC(C)NS(=O)(=O)Nc1ccc(-c2cncc(-c3ccnc(C(C)(C)C)c3)c2)c(Cl)c1 | 27.3 | 178 | 10 to 60 (≈ 21.8 to 131 µM) |
| CC(C)(C)c1cc(-c2cncc(-c3ccc(NC(=O)OC4CCNCC4)cc3Cl)c2)ccn1 | 1.78 | 1090 | < 10 |
| CC(C)(CO)c1cc(-c2cncc(-c3ccc(NS(C)(=O)=O)cc3Cl)c2)ccn1 | 6.5 | > 120 | < 10 |
| CC(C)OC(=O)Nc1ccc(-c2cncc(-c3ccnc(C(C)(C)CO)c3)c2)c(Cl)c1 | 21.5 | 87.8 | < 10 |
| CC(C)(C)c1cc(-c2cccc(-c3ccc(NS(=O)(=O)C(F)(F)F)cc3Cl)c2F)ccn1 | 0.54 | 81.3 | 10 to 60 (≈ 20.5 to 123 µM) |
| CC(C)(C)c1cc(-c2cccc(-c3ccc(NS(C)(=O)=O)cc3Cl)c2)ccn1 | 90.8 | 110 | < 10 |
| CC(C)(C)c1cc(-c2cccc(-c3ccc(NS(C)(=O)=O)cc3Cl)c2F)ccn1 | 16.4 | 206 | < 10 |
| CC(C)(C)c1cc(-c2cccc(-c3ccc(C(=O)N4CCC(O)CC4)cc3Cl)c2F)ccn1 | 16.3 | 40.3 | < 10 |
| CC(C)(C)c1cc(-c2cccc(-c3ccc(C(=O)NS(=O)(=O)C4CC4)cc3Cl)c2)ccn1 | 12.1 | 66.7 | 10 to 60 (≈ 21.3 to 128 µM) |
| CC(C)(C)c1cc(-c2cccc(-c3ccc(NS(=O)(=O)CC(F)(F)F)cc3Cl)c2)ccn1 | > 120 | > 120 | < 10 |
| CC(C)(C)c1cc(-c2cccc(-c3ccc(NC(=O)N4CCC(O)CC4)cc3Cl)c2)ccn1 | 72.1 | 400 | < 10 |

Now from value to compound:

| half-life at 1 µM [1] [min] | half-life at 1 µM [2] [min] | solubility kinetic at 24 h (Kinetic solubility) [µg/mL] | Compound |
| --- | --- | --- | --- |
| 2.62 | 1860 | 10 to 60 (≈ 22.2 to 133 µM) | CC(C)(C)c1cc(-c2cncc(-c3cc(C(=O)N4CCC(O)CC4)ccc3Cl)c2)ccn1 |
| 11.3 | 25.5 | < 10 | Cc1c(-c2ccnc(C(C)(C)C)c2)cncc1-c1ccc(C(=O)N2CCCC(O)C2)cc1Cl (stereo not drawn) |
| 2.98 | 9.75 | 10 to 60 (≈ 21.5 to 129 µM) | CC(C)(CNC(=O)c1ccc(-c2cncc(-c3ccnc(C(C)(C)C)c3)c2)c(Cl)c1)C(=O)O |
| 11.4 | 33.8 | 10 to 60 (≈ 20 to 120 µM) | CC(C)(C)c1cc(-c2cc(-c3ccc(C(=O)N4CCC(O)CC4)cc3Cl)cc3cnccc23)ccn1 |
| 119 | 108 | 10 to 60 (≈ 20 to 120 µM) | CC(C)(C)c1cc(-c2cc(-c3ccc(C(=O)N4CCC(O)CC4)cc3Cl)c3ccncc3c2)ccn1 |
| 15.4 | 21.3 | < 10 | CC(C)(C)c1cc(-c2cncc(-c3ccc(C(=O)N4CC5CCC(C4)C5O)cc3Cl)c2)ccn1 (stereo not drawn) |
| 29.4 | 75.6 | 10 to 60 (≈ 22.1 to 133 µM) | CC(C)(C)c1cc(-c2cncc(-c3ccc(C(=O)N4CC(O)C(O)C4)cc3Cl)c2)ccn1 (stereo not drawn) |
| 27.1 | 36.2 | 10 to 60 (≈ 22.1 to 133 µM) | CC(C)(C)c1cc(-c2cncc(-c3ccc(C(=O)N4C[C@@H](O)[C@@H](O)C4)cc3Cl)c2)ccn1 |
| 1.74 | 26.5 | 10 to 60 (≈ 22.9 to 138 µM) | CC(C)(C)c1cc(-c2cncc(-c3ccc(C(=O)N4CC(CO)C4)cc3Cl)c2)ccn1 |
| 2.01 | 38.3 | 10 to 60 (≈ 23.7 to 142 µM) | CC(C)(C)c1cc(-c2cncc(-c3ccc(C(=O)N4CC(O)C4)cc3Cl)c2)ccn1 |
